Laboratory results taken from patent US6617321B2, “2-methyl-thieno-benzodiazepine formulation” (Eli Lilly and Company, priority 1997, dated 2003).

Test: Solubility of olanzapine pamoate salts as a function of pH
Format: physicochemical
Details: particularly in the range of pH 4 to 8

## Cc1cc2c(s1)Nc1ccccc1N=C2N1CCN(C)CC1.O=C(O)c1cc2ccccc2c(Cc2c(O)c(C(=O)O)cc3ccccc23)c1O [olanzapine pamoate, 2-methyl-4-(4-methyl-1-piperazinyl)-10H-thieno[2,3-b][1,5]benzodiazepine pamoate]
  solubility, dependence on pH: somewhat independent of pH
